Where two headings read alike, the source gives them in different places.
Columns and labels:
GR [1] = target: T1, GR (Homo sapiens, UniProt P04150); assay: GRE (TAT3-Luc) activation luciferase assay in CV-1 cells transfected with GR; format: cell-based; details: Table 4; for EC50: read-out: GR pot (EC50)
T1 construct: expressed in transfected cells; host or cells: CV-1 cells, transient transfection (plasmid a gift of Keith Yamamoto, UCSF)
T1 sequence (P04150 1-777): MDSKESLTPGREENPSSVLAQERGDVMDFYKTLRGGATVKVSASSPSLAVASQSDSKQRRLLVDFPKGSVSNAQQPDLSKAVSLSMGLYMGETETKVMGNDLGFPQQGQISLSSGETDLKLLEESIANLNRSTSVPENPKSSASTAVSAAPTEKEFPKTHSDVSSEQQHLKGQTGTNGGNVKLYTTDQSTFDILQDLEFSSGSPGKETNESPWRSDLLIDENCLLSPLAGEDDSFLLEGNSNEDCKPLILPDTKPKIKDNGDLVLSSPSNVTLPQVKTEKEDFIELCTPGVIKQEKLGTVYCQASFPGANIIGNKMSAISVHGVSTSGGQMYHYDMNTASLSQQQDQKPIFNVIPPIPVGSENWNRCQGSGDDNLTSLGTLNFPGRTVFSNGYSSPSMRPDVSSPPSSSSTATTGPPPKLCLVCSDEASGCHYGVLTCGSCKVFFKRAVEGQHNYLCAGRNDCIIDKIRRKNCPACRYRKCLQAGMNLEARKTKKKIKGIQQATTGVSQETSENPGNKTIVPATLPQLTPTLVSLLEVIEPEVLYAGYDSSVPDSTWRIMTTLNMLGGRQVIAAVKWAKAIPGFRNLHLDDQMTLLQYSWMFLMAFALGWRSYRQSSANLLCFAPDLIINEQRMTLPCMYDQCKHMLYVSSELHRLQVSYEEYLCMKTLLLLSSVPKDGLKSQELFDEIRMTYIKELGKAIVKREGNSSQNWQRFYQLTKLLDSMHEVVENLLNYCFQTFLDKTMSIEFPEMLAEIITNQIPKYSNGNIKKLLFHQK
Description: Cells were plated into tissue culture treated, 96 well flat bottom plates (25,000 cells/well), and incubated for 12 h at 37° C. Cells were then transfected using the Lipofectamine PLUS transfection reagent (Gibco BRL). DNA-lipid complexes of 5 ng GR, 50 ng TAT3-Luc, 7.5 ng β-galactosidase, 1 μL-well PLUS reagent and 0.67 μL-well lipofectamine in 50 μL/well serum free media were added to cells and incubated for 4 h at 37° C. Complexes were removed and hormones diluted in 5% charcoal-stripped FBS were added to the cells, which were then incubated for 24 hours at 37° C. Media was removed and the cells were washed with 100 μL Ca^+2, Mg^+2 free phosphate buffered saline (PBS). Lysis was achieved by adding 50 μL of Passive Lysis Buffer (Promega Corp, Madison, Wis.) and shaking the plate for 15 min. 15 μL of this lysate was then used to assay β-galactosidase activity (β-galactosidase enzyme assay system, Promega Corp., recommended procedures followed). The Luciferase Assay System (Promega Corp.) was used to assay luciferase activity. 100 μL of luciferase assay reagent was added rapidly to the plate and luminescence was measured for 10 ms/well on an Analyst AD Detection System (LJL Biosystems, Sunnyvale, Calif.).

[2] = target: T2, glucocorticoid receptor (GR) (Homo sapiens, UniProt P04150); assay: Glucocorticoid Receptor Competitor Assay Kit (Panvera) ligand binding; details: Table 3; relative binding affinity, dexamethasone = 100
T2 construct: purchased Panvera Corp, Madison, Wis
T2 sequence (P04150 1-777): T1 sequence (P04150 1-777)
Text: The Glucocorticoid Receptor Competitor Assay Kit (Panvera Corp, Madison, Wis.) was used for ligand binding studies. The recommended room temperature protocol was followed for all assayed ligands.

MR = target: T3, MR (Homo sapiens, UniProt P08235); assay: MR activation (max fold activation); format: cell-based; details: Table 4
T3 sequence (P08235 1-984): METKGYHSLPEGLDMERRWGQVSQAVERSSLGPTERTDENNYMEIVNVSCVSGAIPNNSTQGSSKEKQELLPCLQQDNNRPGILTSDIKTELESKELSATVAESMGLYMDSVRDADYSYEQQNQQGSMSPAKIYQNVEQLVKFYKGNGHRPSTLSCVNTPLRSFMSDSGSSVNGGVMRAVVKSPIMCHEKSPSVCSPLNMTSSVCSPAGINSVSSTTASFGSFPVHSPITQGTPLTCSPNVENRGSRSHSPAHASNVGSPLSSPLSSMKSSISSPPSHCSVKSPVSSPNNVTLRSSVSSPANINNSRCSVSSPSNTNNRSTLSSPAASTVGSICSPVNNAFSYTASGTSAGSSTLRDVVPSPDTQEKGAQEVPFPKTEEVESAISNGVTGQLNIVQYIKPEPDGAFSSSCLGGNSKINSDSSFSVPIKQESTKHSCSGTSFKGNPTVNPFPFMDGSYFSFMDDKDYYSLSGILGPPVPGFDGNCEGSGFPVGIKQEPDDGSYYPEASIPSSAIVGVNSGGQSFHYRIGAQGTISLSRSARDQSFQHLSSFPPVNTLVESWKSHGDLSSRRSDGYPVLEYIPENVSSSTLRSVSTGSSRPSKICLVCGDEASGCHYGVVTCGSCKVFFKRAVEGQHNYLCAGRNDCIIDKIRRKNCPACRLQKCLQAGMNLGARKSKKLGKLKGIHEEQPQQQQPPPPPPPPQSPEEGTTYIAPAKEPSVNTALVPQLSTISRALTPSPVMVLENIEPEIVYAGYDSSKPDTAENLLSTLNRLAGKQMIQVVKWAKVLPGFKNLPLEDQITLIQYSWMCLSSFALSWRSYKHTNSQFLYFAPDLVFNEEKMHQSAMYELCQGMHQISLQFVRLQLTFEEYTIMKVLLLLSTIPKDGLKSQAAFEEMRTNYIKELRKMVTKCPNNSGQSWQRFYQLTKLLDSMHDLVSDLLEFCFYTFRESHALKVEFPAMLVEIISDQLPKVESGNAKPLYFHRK

GR [3] = target: T4, GR (Rattus norvegicus, UniProt P06536); assay: AP-1 repression luciferase assay in U2OS cells stably transfected with rat GR; format: cell-based; details: Table 5, TPA-stimulated U2OS cells; for EC50: read-out: Repression AP-1 pot (EC50); for Emax: 12 h, read-out: Repression AP-1 % max repression
T4 construct: expressed in transfected cells; gift of Keith Yamamoto
T4 sequence (P06536 1-795): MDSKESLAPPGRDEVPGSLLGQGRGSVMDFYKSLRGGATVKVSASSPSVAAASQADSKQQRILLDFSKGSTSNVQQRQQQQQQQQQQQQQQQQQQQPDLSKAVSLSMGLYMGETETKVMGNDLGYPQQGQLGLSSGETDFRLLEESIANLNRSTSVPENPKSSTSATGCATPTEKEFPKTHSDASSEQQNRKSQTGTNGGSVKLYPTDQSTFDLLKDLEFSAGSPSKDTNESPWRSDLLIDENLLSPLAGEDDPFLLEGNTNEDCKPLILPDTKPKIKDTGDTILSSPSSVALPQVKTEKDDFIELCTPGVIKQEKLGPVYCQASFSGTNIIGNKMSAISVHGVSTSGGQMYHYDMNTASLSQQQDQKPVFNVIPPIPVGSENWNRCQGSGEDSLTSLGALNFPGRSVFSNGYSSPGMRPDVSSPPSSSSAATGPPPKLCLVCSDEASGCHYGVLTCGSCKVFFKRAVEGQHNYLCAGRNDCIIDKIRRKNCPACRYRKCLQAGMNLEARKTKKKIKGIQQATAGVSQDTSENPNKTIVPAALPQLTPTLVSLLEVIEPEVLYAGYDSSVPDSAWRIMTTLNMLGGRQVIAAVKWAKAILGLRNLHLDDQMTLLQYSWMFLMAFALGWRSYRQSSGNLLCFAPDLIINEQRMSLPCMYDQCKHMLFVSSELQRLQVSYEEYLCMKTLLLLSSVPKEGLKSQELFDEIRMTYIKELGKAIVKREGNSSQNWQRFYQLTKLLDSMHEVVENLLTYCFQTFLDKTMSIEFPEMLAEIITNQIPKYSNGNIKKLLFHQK
Description: For API repression assays, U2OS cells stably transfected with rat GR were grown in similar media as for CV-1 cells with the exception of the FBS concentration, which was 10% and the only antibiotic was […]. Cells were plated and transfected in a similar fashion, except for plasmids, which in this case were 50 ng/well AP1-Luc and 10 ng/well β-galactosidase. Post-transfection, cells were incubated with either 50 ng/mL TPA (Phorbol 12-myristate 13-acetate), or 50 ng/mL TPA and various hormone dilutions in 10% charcoal treated FBS media. The cells were incubated for 12 h, and the lysis, β-galactosidase assay, and luciferase assay were performed as previously described.

Coll A = Coll A repression; format: cell-based; details: for Emax: read-out: Repression Coll A % max repression; for EC50: read-out: Repression Coll A pot (EC50)
NF-κB = NF-κB repression luciferase assay in A549 cells; format: cell-based, human; details: Table 5, TNF-α-stimulated A549 cells; for EC50: Homo sapiens, read-out: Repression NF-KB pot (EC50)
Text: Plasmids for GR (human, pSG5 backbone), AP1-Luc (synthetic AP1 response element upstream of a firefly luciferase gene), TAT3-Luc (three copies of the tyrosine aminotransferase glucocorticoid response element upstream of a firefly luciferase gene), β-galactosidase (used as a transfection control), as well as two stable transfected cells lines: an A549 (human, lung carcinoma) cell line stably transfected with a κB response element upstream of a firefly luciferase gene, (R. M. Nissen et al., Genes Dev., 14(18):2314-29, (2000)) and a U2OS (human, osteosarcoma) stably transfected with rat GR (I. Rogatsky, et al., Mol. Cell. Biol., 1997, 17, 3181-3193) were a gift of Professor Keith Yamamoto (Department of Biochemistry, University of California, San Francisco).
For NF-κB repression assays, A549 cells stably transfected with a luciferase reporter were grown under the same conditions as CV-1 cells. 50,000 cells/well were plated into 96 well plates and incubated for 12 h at 37° C. Either TNF-α alone or mixed with various hormone dilutions in media were then added to the cells, which were then incubated for 8 hours. Procedures for lysis and luciferase assay were performed as previously described. Protein content was used as a control in this case and the recommended procedures using the BCA Protein Assay Kit (Roche) were followed.

GRE activation max fold activation (GR [1])	EC50 (GR [1]) [nM]	GR binding RBA (dex = 100) [2]	MR max fold activation (MR)	EC50 (GR [3]) [nM]	Emax (GR [3]; U2OS) [%]	EC50 (Coll A; Table 5) [nM]	EC50 (NF-κB) [nM]	EC50 (Coll A; Table 2) [nM]	Emax (GR [3]) [%]	SMILES	Emax (Coll A; Table 5) [%]	Repression NF-KB % max repression (NF-κB) [%]	Emax (Coll A; Table 2) [%]	Repression Coll A % max repression (Coll A; Table 5) [%]
						2.1	8.4			C[C@]12CCC(=O)C=C1CC[C@@H]1[C@@H]2[C@@H](O)C[C@@]2(C)[C@H]1CC[C@]2(O)C(=O)CO [Cortisol, cortisol]		83		
							1.5	0.36	89	C[C@@H]1C[C@H]2[C@@H]3CCC4=CC(=O)C=C[C@]4(C)[C@@]3(F)[C@@H](O)C[C@]2(C)[C@@]1(O)C(=O)CO [Dexamethasone, dexamethasone, reference compound]		87	84	84

More lines, now with the values behind:

SMILES	GRE activation max fold activation (GR [1])	EC50 (GR [1]) [nM]	GR binding RBA (dex = 100) [2]	MR max fold activation (MR)	EC50 (GR [3]) [nM]	Emax (GR [3]; U2OS) [%]	EC50 (Coll A; Table 5) [nM]	EC50 (NF-κB) [nM]	EC50 (Coll A; Table 2) [nM]	Emax (GR [3]) [%]	Emax (Coll A; Table 5) [%]	Repression NF-KB % max repression (NF-κB) [%]	Emax (Coll A; Table 2) [%]	Repression Coll A % max repression (Coll A; Table 5) [%]
CC12Cc3cnn(-c4ccc(F)cc4)c3C=C1CCCC2C(O)c1csc2ccccc12 (centres unmarked) [Compound 221, 3a,7a-(Dihydro-benzo[b]thiophen-3-yl)-[1-(4-fluoro-phenyl)-4a-methyl-4,4a,5,6,7,8-hexahydro-1H-benzo[f]indazol-5-yl]-methanol]	21	313	93	2.0 ± 0.7	5.3	74								
CC12Cc3cnn(-c4ccc(F)cc4)c3C=C1CCCC2C(O)c1cccc(O)c1 (centres unmarked) [Compound 229, 3-{[1-(4-Fluoro-phenyl)-4a-methyl-4,4a,5,6,7,8-hexahydro-1H-benzo[f]indazol-5-yl]-hydroxy-methyl}-phenol]	55 ± 2	110 ± 7	52	3.1 ± 1.0	16.6	77								
CC12Cc3cnn(-c4ccc(F)cc4)c3C=C1CCCC2C(O)c1ccc(O)cc1 (centres unmarked) [Compound 231, 4-{[1-(4-Fluoro-phenyl)-4a-methyl-4,4a,5,6,7,8-hexahydro-1H-benzo[f]indazol-5-yl]-hydroxy-methyl}-phenol]	69 ± 25	330 ± 92	36	2.9 ± 0.5	12.8	68	28				70			

From US7947726B2, “Non-steroidal ligands for the glucocorticoid receptor, and compositions thereof” (The Regents of the University of California, priority 2002, dated 2011)
